In patent publication US7439359B2, “Small molecule compositions for binding to hsp90” (Sloan-Kettering Institute for Cancer Research, priority 2000, dated 2008):
Read-outs that look alike come from different tables or passages of the source.

Experiments:
MCF-7 = assay: Growth inhibition, sulforhodamine B assay; format: cell-based, human; details: unit inferred
From the text: (§1) Protein Assays. […] Antiproliferative index. […] Tissue Culture IC50 Studies. […] Her2 degradation. Total Protein Assays. […] Binding studies. Solid phase competition assays.

MDA-MB-468 = assay: Growth inhibition, sulforhodamine B assay; format: cell-based, human; details: for IC50: unit inferred
From the text: as §1

Hsp90 beta = target: T1, Hsp90 beta (Homo sapiens, UniProt P08238); assay: Solid phase competition assay with GM-beads, Hsp90 beta immunoblot; format: binding; details: for EC50: competition with immobilized GM, unit inferred, read-out: EC50 Hsp90 β
T1 construct: purchased Stressgen SPP-770
Protocol: (§2) A test was also designed which allows identification of compounds which interact differentially with Hsp90-alpha and Hsp90-beta. […] An Hsp90 protein preparation containing both the alpha and the beta form is incubated with the support in the presence or absence of a compound to be evaluated. […] After washing, the material bound to the support is eluted and the eluate is separated on an SDS/PAGE gel and visualized by immunoblotting with anti-Hsp90-alpha and anti-Hsp90-beta to determine the amount of material bound. Alternatively, if quantitative amounts of the Hsp90 protein preparation or known ratios of alpha to beta forms of Hsp90 are used in the first instance, the unbound material can be analyzed by a similar technique.
as §1

Hsp90alpha = Hsp90alpha (Homo sapiens, UniProt P07900); assay: Solid phase competition assay with GM-beads, Hsp90 alpha immunoblot; format: binding; parameters: purchased Stressgen SPP-770; details: for EC50: competition with immobilized GM, unit inferred, read-out: EC50 Hsp90 α
Protocol: as §2, §1

BT-474 = assay: Growth inhibition, sulforhodamine B assay; format: cell-based; details: Homo sapiens, 72 hours, unit inferred
From the text: as §1

Her2 = Her2 total protein degradation in MCF-7 cells (immunoblot);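 note: Her2 levels judged by SDS-PAGE western blot of whole-cell lysates probed with anti-Her2 antibody, compared with DMSO vehicle-treated cells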
Protocol: For assays on protein levels, cells were grown to 60-70% confluence exposed to drugs or DMSO vehicle for the indicated time periods. Lysates were prepared using 50 mM Tris pH=7.4, 2% SDS and 10% glycerol lysis buffer. Protein concentration was determined using the BCA kit (Pierce Chemical Co.), according to the manufacturers instructions. Clarified protein lysates (20-50 mg) were electrophoretically resolved on denaturing SDS-PAGE, transferred to nitrocellulose and probed with the following primary antibodies: anti-Her2 (C-18), -Her3 (C-17), -Raf-1, -cyclin D1, -Rb (C-15) (Santa Cruz), anti-hsp90, -hsp70, -ER (Stressgen), anti-Trap-1 (MSK81), anti-b-actin, -tubulin (Sigma), anti-PI3K (p85) (Upstate Biotechnologies).
After 24 hours, the cells were lysed and the amount of Her2 in the cells was evaluated.
Protein Assays. Cells were grown to 60-70% confluence and exposed to drugs or DMSO vehicle for the indicated time periods. Lysates were prepared using 50 mM Tris pH 7.4, 2% SDS and 10% glycerol lysis buffer. Protein concentration was determined using the BCA kit (Pierce Chemical Co.), according to the manufacturers instructions. Clarified protein lysates (20-50 mg) were electrophoretically resolved on denaturing SDS-PAGE, transferred to nitrocellulose and probed with the following primary antibodies: anti-Her2 (C-18), -Her3 (C-17), -Raf-1, -cyclin D1, -Rb (C-15) (Santa Cruz Biotechnology), anti-hsp90, -hsp70 (Stressgen) anti-Trap-1 (MSK81), anti-b-actin, -tubulin (Sigma), ER, anti-PI3K (p85) (Upstate Biotechnologies). […] Her2 degradation. Total Protein Assays. Cells were grown to 60-70% confluence and exposed to drugs or DMSO vehicle for the indicated time periods. Lysates were prepared using 50 mM Tris pH 7.4, 2% SDS and 10% glycerol lysis buffer. Protein concentration was determined using the BCA kit (Pierce Chemical Co.), according to the manufacturers instructions. Clarified protein lysates (20-50 μg) were electrophoretically resolved on denaturing SDS-PAGE, transferred to nitrocellulose and probed with the anti-Her2 primary antibody (C-18) (Santa Cruz Biotechnology).

[1] = Homo sapiens, MDA-MB-468, 72 hours
[2] = Homo sapiens, MCF7, read-out: IC50 Her2/MCF-7
[3] = read-out: IC50 Her2/MCF-7, Her2 total protein degradation in MCF-7, unit inferred

T1 sequence (P08238 whole entry): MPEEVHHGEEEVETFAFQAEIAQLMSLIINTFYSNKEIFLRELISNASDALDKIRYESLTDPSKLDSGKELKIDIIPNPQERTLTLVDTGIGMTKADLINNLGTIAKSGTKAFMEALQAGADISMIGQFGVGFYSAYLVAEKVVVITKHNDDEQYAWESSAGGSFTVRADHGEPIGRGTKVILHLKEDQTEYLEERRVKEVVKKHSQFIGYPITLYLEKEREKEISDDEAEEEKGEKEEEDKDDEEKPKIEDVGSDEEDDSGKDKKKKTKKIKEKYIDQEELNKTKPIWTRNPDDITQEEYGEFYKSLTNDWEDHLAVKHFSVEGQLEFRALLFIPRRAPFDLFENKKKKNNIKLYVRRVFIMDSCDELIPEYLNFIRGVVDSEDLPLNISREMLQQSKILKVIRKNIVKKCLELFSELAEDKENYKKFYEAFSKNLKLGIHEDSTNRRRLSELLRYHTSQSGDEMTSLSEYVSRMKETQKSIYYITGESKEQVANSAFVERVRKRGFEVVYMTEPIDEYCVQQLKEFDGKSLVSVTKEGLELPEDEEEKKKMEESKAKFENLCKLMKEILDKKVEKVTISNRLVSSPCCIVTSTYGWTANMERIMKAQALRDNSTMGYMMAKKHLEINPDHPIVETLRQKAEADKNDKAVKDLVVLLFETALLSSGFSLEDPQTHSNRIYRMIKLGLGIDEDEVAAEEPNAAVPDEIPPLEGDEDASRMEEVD

IC50 (MCF-7; 72 hours) [µM] | IC50 (MDA-MB-468; 72 hours) [µM] | binding to hsp 90-beta (Hsp90 beta) | binding to hsp 90-alpha (Hsp90alpha) | EC50 (Hsp90 beta) [µM] | IC50 (MCF-7; Homo sapiens, MCF7, 72 hours) [µM] | IC50 (MDA-MB-468; [1]) [µM] | IC50 (BT-474) [µM] | EC50 (Hsp90alpha) [µM] | IC50 (Her2; [2]) [µM] | IC50 MDA-468 (MDA-MB-468; 72 hours, unit not given) | IC50 (Her2; [3]) [µM] | Structure (SMILES)
51 | 66 | – | – | – | – | – | – | – | – | – | – | CC=CCn1c(Cc2cc(OC)c(OC)c(OC)c2)nc2c(N)ncnc21 (mixture of isomers) [PU11]
64 | 80 | – | – | 75 | – | – | – | 17.6 | – | – | 70 | CC/C=C\Cn1c(Cc2cc(OC)c(OC)c(OC)c2)nc2c(N)ncnc21 [PU7]
41 | 73 | – | – | 10.6 | – | – | – | 4 | – | – | 30 | C=CCCn1c(Cc2cc(OC)c(OC)c(OC)c2)nc2c(N)ncnc21 [PU8]
69 | 85 | – | – | 114 | – | – | – | 28 | – | – | – | COc1cc(Cc2nc3c(N)ncnc3n2CCCC(C)C)cc(OC)c1OC [PU9]
70 | 75 | – | – | – | – | – | – | – | – | – | – | COc1cc(Cc2nc3c(N)ncnc3n2C)cc(OC)c1OC [PU13]
160 | 130 | – | – | 52.1 | – | – | – | 62.3 | – | – | > 100 | CCC(CC)Cn1c(Cc2cc(OC)c(OC)c(OC)c2)nc2c(N)ncnc21 [PU14]
75 | 70 | – | – | 16.2 | – | – | – | 12 | – | – | 70 | COc1cc(Cc2nc3c(N)ncnc3n2CC2CC2)cc(OC)c1OC [PU15]
46 | 68 | – | – | 32 | – | – | – | 17 | – | – | 60 | COc1cc(Cc2nc3c(N)ncnc3n2CC2CCC2)cc(OC)c1OC [PU16]
– | – | – | – | 3.4 | 92 | 80 | – | 4.4 | 70 | – | – | COc1cc(Cc2nc3c(N)ncnc3n2CC2CCCO2)cc(OC)c1OC (stereo not shown) [PU20]
– | – | – | – | 11.8 | 62 | 73 | – | 22.5 | 50 | – | – | CCCCCn1c(Cc2cc(OC)c(OC)c(OC)c2)nc2c(N)ncnc21 [PU21]
80 | 118 | – | – | – | – | – | – | – | – | – | – | CCn1c(Cc2cc(OC)c(OC)c(OC)c2)nc2c(N)ncnc21 [PU22]
47 | 55 | – | – | 9.5 | – | – | – | 13.3 | – | – | 50 | CC/C=C/Cn1c(Cc2cc(OC)c(OC)c(OC)c2)nc2c(N)ncnc21 [PU23]
82 | – | – | – | – | – | – | – | – | – | – | – | COc1cc(Cc2nc3c(N)ncnc3n2CC(OC)OC)cc(OC)c1OC [PU25]
62 | 71 | – | – | 15.7 | – | – | – | 25.3 | – | – | 70 | CCC(C)Cn1c(Cc2cc(OC)c(OC)c(OC)c2)nc2c(N)ncnc21 (stereo not shown) [PU26]
39 | 72 | – | – | 1.7 | – | – | – | 1.4 | – | – | 45 | COc1cc(Cc2nc3c(N)ncnc3n2CCOC(C)C)cc(OC)c1OC [PU29]
111 | – | – | – | 47.8 | – | – | – | 111 | – | – | 120 | COc1cc(Cc2nc3c(N)ncnc3n2CC2(C)CC2)cc(OC)c1OC [PU30]
98 | 70 | – | – | 20.4 | – | – | – | 16.6 | – | – | 100 | COc1cc(Cc2nc3c(N)ncnc3n2CC(C)C)cc(OC)c1OC [PU41]
47 | 54 | – | – | 10.8 | – | – | – | 6.6 | – | – | 50 | CCCn1c(Cc2cc(OC)c(OC)c(OC)c2)nc2c(N)ncnc21 [PU43]
65 | 79 | – | – | 12.4 | – | – | – | 4.1 | – | – | 85 | COCCn1c(Cc2cc(OC)c(OC)c(OC)c2)nc2c(N)ncnc21 [PU44]

More lines, now with the values behind:

Structure (SMILES) | IC50 (MCF-7; 72 hours) [µM] | IC50 (MDA-MB-468; 72 hours) [µM] | binding to hsp 90-beta (Hsp90 beta) | binding to hsp 90-alpha (Hsp90alpha) | EC50 (Hsp90 beta) [µM] | IC50 (MCF-7; Homo sapiens, MCF7, 72 hours) [µM] | IC50 (MDA-MB-468; [1]) [µM] | IC50 (BT-474) [µM] | EC50 (Hsp90alpha) [µM] | IC50 (Her2; [2]) [µM] | IC50 MDA-468 (MDA-MB-468; 72 hours, unit not given) | IC50 (Her2; [3]) [µM]
CCCCn1c(Oc2cc(OC)c(OC)c(OC)c2)nc2c(N)ncnc21 [Compound 69, 9-Butyl-8-(3,4,5-trimethoxy-phenoxy)-9H-purin-6-ylamine] | – | – | weak binding | no detectable binding | – | – | – | – | – | – | – | –
CCCCn1c(Cc2cc(OC)c(OC)c(OC)c2)nc2c(N)nc(F)nc21 [PU3F, 2-Fluoro-9-butyl-8-(3,4,5-trimethoxy-benzyl)-9H-purin-6-ylamine] | – | – | – | – | 3.5 | 24 | 30 | 29 | 6 | 25 | – | –
CCCCn1c(Cc2c(Br)c(OC)c(OC)c(OC)c2Br)nc2c(N)ncnc21 [PU3PhBr2, 9-butyl-8-(2,6-dibromo-3,4,5-trimethoxy-benzyl)-9H-purin-6-ylamine] | – | – | – | – | > 100 | 30 | 21 | – | > 100 | > 100 | – | –
CCCCn1c(Cc2cc(OC)c(OC)c(OC)c2Br)nc2c(N)ncnc21 [PU3PhBr, 9-butyl-8-(2-bromo-3,4,5-trimethoxy-benzyl)-9H-purin-6-ylamine] | – | – | – | – | 11.7 | 25 | – | 60 | 35.3 | 50 | INSOL | –
CCCCn1c(Cc2cc(OC)c(OC)c(OC)c2Cl)nc2c(N)ncnc21 [PU3PhCl, 9-butyl-8-(2-chloro-3,4,5-trimethoxy-benzyl)-9H-purin-6-ylamine] | – | – | – | – | 4.6 | 19 | 36 | 30 | 18.6 | 25 | – | –
C=CCCn1c(Cc2cc(OC)c(OC)c(OC)c2)nc2c(N)nc(F)nc21 [PU8F, 2-Fluoro-9-but-3-enyl-8-(3,4,5-trimethoxy-benzyl)-9H-purin-6-ylamine] | – | – | – | – | 9.8 | 33 | 25 | 35 | 5 | 30 | – | –
COc1cc(Cc2nc3c(N)nc(F)nc3n2CC2CCC2)cc(OC)c1OC [PU16F, 2-Fluoro-9-cyclobutylmethyl-8-(3,4,5-trimethoxy-benzyl)-9H-purin-6-ylamine] | – | – | – | – | 9.2 | 41 | 21 | 31 | 30.7 | 40 | – | –
COc1cc(Cc2nc3c(N)nc(F)nc3n2CC2CCCO2)cc(OC)c1OC (stereo not shown) [PU20F, 2-Fluoro-9-(tetrahydrofuran-2-ylmethyl)-8-(3,4,5-trimethoxy-benzyl)-9H-purin-6-ylamine] | – | – | – | – | 6.8 | 23 | 21 | 25 | 2.3 | 20 | – | –
CCCCCn1c(Cc2cc(OC)c(OC)c(OC)c2)nc2c(N)nc(F)nc21 [PU21F, 2-Fluoro-9-pentyl-8-(3,4,5-trimethoxy-benzyl)-9H-purin-6-ylamine] | – | – | – | – | 8.9 | 36 | 19 | 43 | 22 | 35 | – | –
C#CCCCn1c(Cc2cc(OC)c(OC)c(OC)c2)nc2c(N)nc(F)nc21 [PU24F, 2-Fluoro-9-pent-4-ynyl-8-(3,4,5-trimethoxy-benzyl)-9H-purin-6-ylamine] | – | – | – | – | 0.7 | 11 | 15 | 14 | 6.2 | 5 | – | –
C#CCCCn1c(Cc2cc(OC)c(OC)c(OC)c2)nc2c(N)ncnc21 [PU24] | – | – | – | – | 1.5 | 24 | 41 | – | 2.6 | 20 | – | –
CC[C@H](C)Cn1c(Cc2cc(OC)c(OC)c(OC)c2)nc2c(N)nc(F)nc21 [PU26F, 2-Fluoro-9-[(S)-2-methyl-butyl]-8-(3,4,5-trimethoxy-benzyl)-9H-purin-6-ylamine] | – | – | – | – | 15 | 44 | 28 | 45 | 22 | 40 | – | –
COc1cc(Cc2nc3c(N)nc(F)nc3n2CCOC(C)C)cc(OC)c1OC [PU29F, 2-Fluoro-9-(2-isopropoxy-ethyl)-8-(3,4,5-trimethoxy-benzyl)-9H-purin-6-ylamine] | – | – | – | – | 1.3 | 16 | 16 | – | 2 | 15 | – | –
COc1cc(Cc2nc3c(N)nc(F)nc3n2CCOC(C)C)c(Cl)c(OC)c1OC [PU29FCl, 2-Fluoro-9-(2-isopropoxy-ethyl)-8-(2-chloro-3,4,5-trimethoxy-benzyl)-9H-purin-6-ylamine] | – | – | – | – | 0.52 | 5.4 | 4.5 | 4.5 | 0.65 | 3 | – | –
CCCn1c(Cc2cc(OC)c(OC)c(OC)c2)nc2c(N)nc(F)nc21 [PU43F, 2-Fluoro-9-propyl-8-(3,4,5-trimethoxy-benzyl)-9H-purin-6-ylamine] | – | – | – | – | 5.3 | 25 | 25 | 30 | 4.1 | 30 | – | –
COCCn1c(Cc2cc(OC)c(OC)c(OC)c2)nc2c(N)nc(F)nc21 [PU44F, 2-Fluoro-9-(2-methoxy-ethyl)-8-(3,4,5-trimethoxy-benzyl)-9H-purin-6-ylamine] | – | – | – | – | 13.8 | 64 | 35 | 60 | 7.9 | 65 | – | –
